In ChEMBL document CHEMBL3297661, “1-Substituted-5-[(3,5-dinitrobenzyl)sulfanyl]-1H-tetrazoles and their isosteric analogs: A new class of selective antitubercular agents active against drug-susceptible and multidrug-resistant mycobacteria” (Eur J Med Chem, 2014):
pIC50: −log10 of the molar value. Converted amounts (≈) assume the structure as drawn.

tested on: Mycobacterium avium; test: Antimycobacterial activity against Mycobacterium avium CNCTC My 330/88 after 21 days by micromethod; format: functional; conditions: CNCTC My 330/88, 504 h

SMILES | MIC [µM]
O=[N+]([O-])c1cc(CSc2nnnn2C2CCCCC2)cc([N+](=O)[O-])c1 | 32 (≈ 11.7 µg/mL)

tested on: Staphylococcus epidermidis; test: Antibacterial activity against Staphylococcus epidermidis H 6966/08 after 48 hrs by broth microdilution method; format: functional; conditions: H 6966/08, 48 h

SMILES | IC95 [µM]
O=[N+]([O-])c1cc(CSc2nnnn2C2CCCCC2)cc([N+](=O)[O-])c1 | > 500

tested on: Mycobacterium kansasii; test: Antimycobacterial activity against Mycobacterium kansasii 6509/96 after 14 days by micromethod; format: functional; conditions: 6509/96, 336 h

SMILES | MIC [µM]
O=[N+]([O-])c1cc(CSc2nnnn2C2CCCCC2)cc([N+](=O)[O-])c1 | 2 (≈ 0.729 µg/mL)

tested on: Lichtheimia corymbifera; test: Antifungal activity against Absidia corymbifera 272 after 48 hrs by broth microdilution method; format: functional, organism-based; conditions: Lichtheimia corymbifera, 272, 48 h

SMILES | pIC50
O=[N+]([O-])c1cc(CSc2nnnn2C2CCCCC2)cc([N+](=O)[O-])c1 | < 3.30

tested on: Mycobacterium tuberculosis; test: Antimycobacterial activity against Mycobacterium tuberculosis CNCTC My 331/88 after 21 days by micromethod; format: functional; conditions: CNCTC My 331/88, 504 h

SMILES | MIC [µM]
O=[N+]([O-])c1cc(CSc2nnnn2C2CCCCC2)cc([N+](=O)[O-])c1 | 1 (≈ 0.364 µg/mL)

tested on: not listed separately; test: Cytotoxicity against MDCK2 cells assessed as cell viability at 30 uM after 48 hrs by MTT assay; format: cell-based, Canis lupus familiaris, MDCK-II; conditions: dog, read-out: Activity

SMILES | viability at 48 h, 30 µM [%]
O=[N+]([O-])c1cc(CSc2nnnn2C2CCCCC2)cc([N+](=O)[O-])c1 | 98

tested on: Staphylococcus epidermidis; test: Antibacterial activity against Staphylococcus epidermidis H 6966/08 after 24 hrs by broth microdilution method; format: functional; conditions: H 6966/08, 24 h

SMILES | IC95 [µM]
O=[N+]([O-])c1cc(CSc2nnnn2C2CCCCC2)cc([N+](=O)[O-])c1 | > 500

tested on: Staphylococcus aureus; test: Antibacterial activity against methicillin-resistant Staphylococcus aureus H 5996/08 after 24 hrs by broth microdilution method; format: functional; conditions: H 5996/08, 24 h

SMILES | IC95 [µM]
O=[N+]([O-])c1cc(CSc2nnnn2C2CCCCC2)cc([N+](=O)[O-])c1 | > 500

tested on: Trichosporon asahii; test: Antifungal activity against Trichosporon asahii 1188 after 48 hrs by broth microdilution method; format: functional; conditions: Trichosporon asahii, 1188, 48 h

SMILES | IC80 [µM]
O=[N+]([O-])c1cc(CSc2nnnn2C2CCCCC2)cc([N+](=O)[O-])c1 | > 500

tested on: Nakaseomyces glabratus; test: Antifungal activity against Candida glabrata 20/I after 24 hrs by broth microdilution method; format: functional; conditions: not given

SMILES | IC80 [µM]
O=[N+]([O-])c1cc(CSc2nnnn2C2CCCCC2)cc([N+](=O)[O-])c1 | > 500

tested on: Staphylococcus aureus; test: Antibacterial activity against Staphylococcus aureus ATCC 6538 after 24 hrs by broth microdilution method; format: functional; conditions: ATCC 6538, 24 h

SMILES | IC95 [µM]
O=[N+]([O-])c1cc(CSc2nnnn2C2CCCCC2)cc([N+](=O)[O-])c1 | > 500

tested on: Mycobacterium kansasii; test: Antimycobacterial activity against Mycobacterium kansasii CNCTC My 235/80 after 7 days by micromethod; format: functional; conditions: CNCTC My 235/80, 168 h

SMILES | MIC [µM]
O=[N+]([O-])c1cc(CSc2nnnn2C2CCCCC2)cc([N+](=O)[O-])c1 | 4 (≈ 1.46 µg/mL)

tested on: Nakaseomyces glabratus; test: Antifungal activity against Candida glabrata 20/I after 48 hrs by broth microdilution method; format: functional; conditions: not given

SMILES | IC80 [µM]
O=[N+]([O-])c1cc(CSc2nnnn2C2CCCCC2)cc([N+](=O)[O-])c1 | > 500

tested on: Pseudomonas aeruginosa; test: Antibacterial activity against Pseudomonas aeruginosa ATCC 9027 after 48 hrs by broth microdilution method; format: functional; conditions: ATCC 9027, 48 h

SMILES | IC95 [µM]
O=[N+]([O-])c1cc(CSc2nnnn2C2CCCCC2)cc([N+](=O)[O-])c1 | > 500

tested on: Escherichia coli; test: Antibacterial activity against Escherichia coli ATCC 8739 after 48 hrs by broth microdilution method; format: functional; conditions: ATCC 8739, ATCC 8739, 48 h

SMILES | IC95 [µM]
O=[N+]([O-])c1cc(CSc2nnnn2C2CCCCC2)cc([N+](=O)[O-])c1 | > 500

tested on: Aspergillus fumigatus; test: Antifungal activity against Aspergillus fumigatus 231 after 48 hrs by broth microdilution method; format: functional, organism-based; conditions: Aspergillus fumigatus, 231, 48 h

SMILES | pIC50
O=[N+]([O-])c1cc(CSc2nnnn2C2CCCCC2)cc([N+](=O)[O-])c1 | < 3.30

tested on: Staphylococcus aureus; test: Antibacterial activity against methicillin-resistant Staphylococcus aureus H 5996/08 after 48 hrs by broth microdilution method; format: functional; conditions: H 5996/08, 48 h

SMILES | IC95 [µM]
O=[N+]([O-])c1cc(CSc2nnnn2C2CCCCC2)cc([N+](=O)[O-])c1 | > 500

tested on: not listed separately; test: Cytotoxicity against human HuH7 cells assessed as cell viability at 30 uM after 48 hrs by MTT assay; format: cell-based, Huh-7; conditions: read-out: Activity

SMILES | viability at 48 h, 30 µM [%]
O=[N+]([O-])c1cc(CSc2nnnn2C2CCCCC2)cc([N+](=O)[O-])c1 | 128

tested on: not listed separately; test: Cytotoxicity against human HeLa cells assessed as cell viability at 30 uM after 48 hrs by MTT assay; format: cell-based; conditions: read-out: Activity

SMILES | viability at 48 h, 30 µM [%]
O=[N+]([O-])c1cc(CSc2nnnn2C2CCCCC2)cc([N+](=O)[O-])c1 | 84

tested on: Candida albicans; test: Antifungal activity against Candida albicans ATCC 44859 after 48 hrs by broth microdilution method; format: functional; conditions: ATCC 44859, 48 h

SMILES | IC80 [µM]
O=[N+]([O-])c1cc(CSc2nnnn2C2CCCCC2)cc([N+](=O)[O-])c1 | > 500

tested on: Klebsiella pneumoniae; test: Antibacterial activity against extended spectrum beta-lactamase producing Klebsiella pneumoniae J 14368/08 after 48 hrs by broth microdilution method; format: functional; conditions: J 14368/08, 48 h

SMILES | IC95 [µM]
O=[N+]([O-])c1cc(CSc2nnnn2C2CCCCC2)cc([N+](=O)[O-])c1 | > 500

tested on: Mycobacterium avium; test: Antimycobacterial activity against Mycobacterium avium CNCTC My 330/88 after 14 days by micromethod; format: functional; conditions: CNCTC My 330/88, 336 h

SMILES | MIC [µM]
O=[N+]([O-])c1cc(CSc2nnnn2C2CCCCC2)cc([N+](=O)[O-])c1 | 16 (≈ 5.83 µg/mL)

tested on: Candida albicans; test: Antifungal activity against Candida albicans ATCC 44859 after 24 hrs by broth microdilution method; format: functional; conditions: ATCC 44859, 24 h

SMILES | IC80 [µM]
O=[N+]([O-])c1cc(CSc2nnnn2C2CCCCC2)cc([N+](=O)[O-])c1 | > 500

tested on: Mycobacterium tuberculosis; test: Antimycobacterial activity against Mycobacterium tuberculosis CNCTC My 331/88 after 14 days by micromethod; format: functional; conditions: CNCTC My 331/88, 336 h

SMILES | MIC [µM]
O=[N+]([O-])c1cc(CSc2nnnn2C2CCCCC2)cc([N+](=O)[O-])c1 | 1 (≈ 0.364 µg/mL)

tested on: Pichia kudriavzevii; test: Antifungal activity against Candida krusei E28 after 48 hrs by broth microdilution method; format: functional; conditions: E28, 48 h

SMILES | IC80 [µM]
O=[N+]([O-])c1cc(CSc2nnnn2C2CCCCC2)cc([N+](=O)[O-])c1 | > 500
